Test results taken from patent publication US20230135152A1 (ACURASTEM INCORPORATED, priority 2020, published 2023).

The compounds below were run against PIKFYVE (Homo sapiens, UniProt Q9Y2I7) (assay: PIKFYVE assay (luciferase ADP-Glo kinase assay, Promega)). Conditions: Table 3.
Assay type: biochemical
Protocol: The activity of Compounds 1-20 was measured using a PIKFYVE assay (luciferase ADP-Glo kinase assay available from Promega Corp. of Madison, Wis.).
The activity of Compounds 39-90 was also measured using a PIKFYVE assay (luciferase ADP-Glo kinase assay available from Promega Corp. of Madison, Wis.).
The activity of Compounds 93-347 was also measured using a PIKFYVE assay (luciferase ADP-Glo kinase assay available from Promega Corp. of Madison, Wis.).

PIKFYVE, sequence (Q9Y2I7 whole entry): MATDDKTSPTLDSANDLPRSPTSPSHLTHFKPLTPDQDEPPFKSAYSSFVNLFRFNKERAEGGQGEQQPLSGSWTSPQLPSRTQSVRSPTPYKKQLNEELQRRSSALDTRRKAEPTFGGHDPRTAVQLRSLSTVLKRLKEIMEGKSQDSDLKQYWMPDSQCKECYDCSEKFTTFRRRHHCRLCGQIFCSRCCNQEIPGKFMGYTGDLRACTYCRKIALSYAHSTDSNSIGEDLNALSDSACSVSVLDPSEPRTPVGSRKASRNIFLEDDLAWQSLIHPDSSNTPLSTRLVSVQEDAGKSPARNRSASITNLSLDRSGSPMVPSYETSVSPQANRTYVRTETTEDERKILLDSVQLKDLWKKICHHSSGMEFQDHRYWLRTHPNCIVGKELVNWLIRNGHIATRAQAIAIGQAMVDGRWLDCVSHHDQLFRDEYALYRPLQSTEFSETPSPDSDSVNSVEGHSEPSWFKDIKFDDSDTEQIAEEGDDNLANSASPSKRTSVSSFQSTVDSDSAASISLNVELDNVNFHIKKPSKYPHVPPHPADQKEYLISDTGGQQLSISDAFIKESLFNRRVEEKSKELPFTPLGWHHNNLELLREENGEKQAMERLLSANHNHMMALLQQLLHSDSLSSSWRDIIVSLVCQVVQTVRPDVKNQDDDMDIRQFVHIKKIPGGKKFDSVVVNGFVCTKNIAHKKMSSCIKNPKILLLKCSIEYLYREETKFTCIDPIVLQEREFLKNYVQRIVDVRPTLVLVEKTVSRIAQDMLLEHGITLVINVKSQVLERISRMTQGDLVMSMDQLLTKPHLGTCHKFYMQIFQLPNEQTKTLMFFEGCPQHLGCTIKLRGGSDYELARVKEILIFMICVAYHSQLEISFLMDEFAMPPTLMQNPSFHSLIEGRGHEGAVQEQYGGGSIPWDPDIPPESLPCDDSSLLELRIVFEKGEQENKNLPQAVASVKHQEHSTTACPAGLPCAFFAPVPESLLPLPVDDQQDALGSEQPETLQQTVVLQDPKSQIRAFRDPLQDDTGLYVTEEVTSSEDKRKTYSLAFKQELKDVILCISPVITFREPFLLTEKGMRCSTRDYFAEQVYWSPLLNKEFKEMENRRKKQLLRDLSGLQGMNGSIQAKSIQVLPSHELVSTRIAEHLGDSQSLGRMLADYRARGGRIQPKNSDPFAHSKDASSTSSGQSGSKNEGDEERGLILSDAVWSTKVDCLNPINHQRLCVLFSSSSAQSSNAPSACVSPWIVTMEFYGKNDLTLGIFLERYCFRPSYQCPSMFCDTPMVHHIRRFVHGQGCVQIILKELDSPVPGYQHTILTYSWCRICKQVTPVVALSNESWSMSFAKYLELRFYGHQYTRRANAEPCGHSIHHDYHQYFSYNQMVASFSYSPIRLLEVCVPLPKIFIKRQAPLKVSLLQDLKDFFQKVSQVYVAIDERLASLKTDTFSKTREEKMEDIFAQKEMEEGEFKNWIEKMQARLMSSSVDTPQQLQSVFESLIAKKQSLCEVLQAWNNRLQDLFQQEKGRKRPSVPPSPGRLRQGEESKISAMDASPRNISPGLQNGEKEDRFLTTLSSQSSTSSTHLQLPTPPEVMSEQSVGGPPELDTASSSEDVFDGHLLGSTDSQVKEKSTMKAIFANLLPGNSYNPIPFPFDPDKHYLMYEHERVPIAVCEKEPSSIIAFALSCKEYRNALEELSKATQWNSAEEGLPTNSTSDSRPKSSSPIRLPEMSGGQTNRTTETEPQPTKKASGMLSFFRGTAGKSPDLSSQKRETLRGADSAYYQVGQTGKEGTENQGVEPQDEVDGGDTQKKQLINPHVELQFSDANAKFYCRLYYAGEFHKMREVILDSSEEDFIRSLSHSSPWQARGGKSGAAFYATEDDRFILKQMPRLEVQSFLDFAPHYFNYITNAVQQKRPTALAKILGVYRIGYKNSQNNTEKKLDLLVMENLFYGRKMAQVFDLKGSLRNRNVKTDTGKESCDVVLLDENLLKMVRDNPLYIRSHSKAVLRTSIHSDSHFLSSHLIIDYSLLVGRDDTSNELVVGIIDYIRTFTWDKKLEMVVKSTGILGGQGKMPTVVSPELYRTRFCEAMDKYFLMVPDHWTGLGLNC

Row | SMILES | IC50 [nM]
1 | Cc1c2ccc(CO)cc2nn1-c1cc(N2CCOCC2)nc(OCCc2cnn(C)c2)n1 [Compound 255, (3-methyl-2-(2-(2-(1-methyl-1H-pyrazol-4-yl)ethoxy)-6-morpholinopyrimidin-4-yl)-2H-indazol-6-yl)methanol] | 10 to 100
2 | CO[C@H](CO)c1nc(N2CCOCC2)cc(-n2ccc(-c3cccc(C)c3C)n2)n1 [Compound 264, (S)-2-(4-(3-(2,3-dimethylphenyl)-1H-pyrazol-1-yl)-6-morpholinopyrimidin-2-yl)-2-methoxyethan-1-ol] | 100 to 5000
3 | CO[C@@H](CO)c1nc(N2CCOCC2)cc(-n2ccc(-c3cccc(C)c3C)n2)n1 [Compound 265, (R)-2-(4-(3-(2,3-dimethylphenyl)-1H-pyrazol-1-yl)-6-morpholinopyrimidin-2-yl)-2-methoxyethan-1-ol] | 100 to 5000
4 | CO[C@H](CO)c1nc(N2CCOCC2)cc(-n2ccc(-c3cccc4c3OCO4)n2)n1 [Compound 266, (S)-2-(4-(3-(benzo[d][1,3]dioxol-4-yl)-1H-pyrazol-1-yl)-6-morpholinopyrimidin-2-yl)-2-methoxyethan-1-ol] | 100 to 5000
5 | CO[C@@H](CO)c1nc(N2CCOCC2)cc(-n2ccc(-c3cccc4c3OCO4)n2)n1 [Compound 267, (R)-2-(4-(3-(benzo[d][1,3]dioxol-4-yl)-1H-pyrazol-1-yl)-6-morpholinopyrimidin-2-yl)-2-methoxyethan-1-ol] | 10 to 100
6 | CO[C@H](CO)c1nc(N2CCOCC2)cc(-n2ccc(-c3cccc4c3COC4)n2)n1 [Compound 270, (S)-2-(4-(3-(1,3-dihydroisobenzofuran-4-yl)-1H-pyrazol-1-yl)-6-morpholinopyrimidin-2-yl)-2-methoxyethan-1-ol] | 100 to 5000
7 | CO[C@@H](CO)c1nc(N2CCOCC2)cc(-n2ccc(-c3cccc4c3COC4)n2)n1 [Compound 271, (R)-2-(4-(3-(1,3-dihydroisobenzofuran-4-yl)-1H-pyrazol-1-yl)-6-morpholinopyrimidin-2-yl)-2-methoxyethan-1-ol] | 100 to 5000
8 | CO[C@H](CO)c1nc(N2CCOCC2)cc(-n2nc(-c3cnc4ccccn34)cc2C)n1 [Compound 280, (S)-2-(4-(3-(imidazo[1,2-a]pyridin-3-yl)-5-methyl-1H-pyrazol-1-yl)-6-morpholinopyrimidin-2-yl)-2-methoxyethan-1-ol] | 100 to 5000
9 | CO[C@@H](CO)c1nc(N2CCOCC2)cc(-n2nc(-c3cnc4ccccn34)cc2C)n1 [Compound 281, (R)-2-(4-(3-(imidazo[1,2-a]pyridin-3-yl)-5-methyl-1H-pyrazol-1-yl)-6-morpholinopyrimidin-2-yl)-2-methoxyethan-1-ol] | 100 to 5000
10 | CO[C@H](CO)c1nc(N2CCOCC2)cc(-n2ccc(-c3cnc4ccccn34)n2)n1 [Compound 282, (S)-2-(4-(3-(imidazo[1,2-a]pyridin-3-yl)-1H-pyrazol-1-yl)-6-morpholinopyrimidin-2-yl)-2-methoxyethan-1-ol] | 100 to 5000
11 | CO[C@@H](CO)c1nc(N2CCOCC2)cc(-n2ccc(-c3cnc4ccccn34)n2)n1 [Compound 283, (R)-2-(4-(3-(imidazo[1,2-a]pyridin-3-yl)-1H-pyrazol-1-yl)-6-morpholinopyrimidin-2-yl)-2-methoxyethan-1-ol] | 100 to 5000
12 | CO[C@H](CO)c1nc(N2CCOCC2)cc(-n2nc(-c3c[nH]c4ncccc34)cc2C)n1 [Compound 284, (S)-2-methoxy-2-(4-(5-methyl-3-(1H-pyrrolo[2,3-b]pyridin-3-yl)-1H-pyrazol-1-yl)-6-morpholinopyrimidin-2-yl)ethan-1-ol] | 10 to 100
13 | CO[C@@H](CO)c1nc(N2CCOCC2)cc(-n2nc(-c3c[nH]c4ncccc34)cc2C)n1 [Compound 285, (R)-2-methoxy-2-(4-(5-methyl-3-(1H-pyrrolo[2,3-b]pyridin-3-yl)-1H-pyrazol-1-yl)-6-morpholinopyrimidin-2-yl)ethan-1-ol] | 10 to 100
14 | CO[C@H](CO)c1nc(N2CCOCC2)cc(-n2nc(-c3c[nH]c4cnccc34)cc2C)n1 [Compound 286, (S)-2-methoxy-2-(4-(5-methyl-3-(1H-pyrrolo[2,3-c]pyridin-3-yl)-1H-pyrazol-1-yl)-6-morpholinopyrimidin-2-yl)ethan-1-ol] | 100 to 5000
15 | CO[C@@H](CO)c1nc(N2CCOCC2)cc(-n2nc(-c3c[nH]c4cnccc34)cc2C)n1 [Compound 287, (R)-2-methoxy-2-(4-(5-methyl-3-(1H-pyrrolo[2,3-c]pyridin-3-yl)-1H-pyrazol-1-yl)-6-morpholinopyrimidin-2-yl)ethan-1-ol] | 100 to 5000
16 | CO[C@H](CO)c1nc(N2CCOCC2)cc(-n2nc(-c3c[nH]c4ccncc34)cc2C)n1 [Compound 288, (S)-2-methoxy-2-(4-(5-methyl-3-(1H-pyrrolo[3,2-c]pyridin-3-yl)-1H-pyrazol-1-yl)-6-morpholinopyrimidin-2-yl)ethan-1-ol] | 100 to 5000
17 | CO[C@@H](CO)c1nc(N2CCOCC2)cc(-n2nc(-c3c[nH]c4ccncc34)cc2C)n1 [Compound 289, (R)-2-methoxy-2-(4-(5-methyl-3-(1H-pyrrolo[3,2-c]pyridin-3-yl)-1H-pyrazol-1-yl)-6-morpholinopyrimidin-2-yl)ethan-1-ol] | 100 to 5000
18 | CO[C@H](CO)c1nc(N2CCOCC2)cc(-n2nc(-c3c[nH]c4cccnc34)cc2C)n1 [Compound 290, (S)-2-methoxy-2-(4-(5-methyl-3-(1H-pyrrolo[3,2-b]pyridin-3-yl)-1H-pyrazol-1-yl)-6-morpholinopyrimidin-2-yl)ethan-1-ol] | 100 to 5000
19 | CO[C@@H](CO)c1nc(N2CCOCC2)cc(-n2nc(-c3c[nH]c4cccnc34)cc2C)n1 [Compound 291, (R)-2-methoxy-2-(4-(5-methyl-3-(1H-pyrrolo[3,2-b]pyridin-3-yl)-1H-pyrazol-1-yl)-6-morpholinopyrimidin-2-yl)ethan-1-ol] | 100 to 5000
20 | CCc1cc(-c2ccccc2)nn1-c1cc(N2CCOCC2)nc([C@@H](CO)OC)n1 [Compound 294, (S)-2-(4-(5-ethyl-3-phenyl-1H-pyrazol-1-yl)-6-morpholinopyrimidin-2-yl)-2-methoxyethan-1-ol] | 10 to 100
21 | CCc1cc(-c2ccccc2)nn1-c1cc(N2CCOCC2)nc([C@H](CO)OC)n1 [Compound 295, (R)-2-(4-(5-ethyl-3-phenyl-1H-pyrazol-1-yl)-6-morpholinopyrimidin-2-yl)-2-methoxyethan-1-ol] | 10 to 100
22 | Cn1cc(CCOc2nc(N3CCOCC3)cc(-n3ccc(C4=CC(C)(C)CC=C4)n3)n2)cn1 [Compound 296, 4-(6-(3-(3,3-dimethylcyclohexa-1,5-dien-1-yl)-1H-pyrazol-1-yl)-2-(2-(1-methyl-1H-pyrazol-4-yl)ethoxy)pyrimidin-4-yl)morpholine] | 100 to 5000
23 | Cc1cccc(-c2ccn(-c3cc(N4CCOCC4)c4c(ccn4C)n3)n2)c1 [Compound 333, 4-(1-methyl-5-(3-(m-tolyl)-1H-pyrazol-1-yl)-1H-pyrrolo[3,2-b]pyridin-7-yl)morpholine] | 100 to 5000
